Laboratory results as given in ChEMBL document CHEMBL4680315, “Synthesis and anticancer potential of novel 5,6-oxygenated and/or halogenated steroidal d-homo lactones” (Bioorg Med Chem, 2021).
Calls of active or inactive are those of the source. The rule behind the calls is not given here.

tested on: MCF7; assay: Cytotoxicity activity against human MCF7 assessed as inhibition of cell growth measured after 72 hrs by MTT assay; type: functional, cell-based; conditions: MCF7, 72 h

Row | SMILES | IC50
1 | CC(=O)O[C@H]1CC[C@]2(C)[C@H]3CC[C@]4(C)COC(=O)C[C@H]4[C@@H]3C[C@@H](OC(C)=O)[C@@]2(O)C1 | 12.7 µM
2 | C[C@]12CCC(=O)C(O)=C1CC[C@@H]1[C@@H]2CC[C@]2(C)C(=O)CC[C@@H]12 [FORMESTANE] | > 100 µM
3 | CO[C@]12C[C@@H](O)CC[C@]1(C)[C@H]1CC[C@]3(C)COC(=O)C[C@H]3[C@@H]1C[C@H]2O | > 100 µM
4 | CC(=O)O[C@H]1CC[C@]2(C)[C@H]3CC[C@]4(C)COC(=O)C[C@H]4[C@@H]3C[C@@H](O)[C@@]2(F)C1 | 42.9 µM

tested on: MDA-MB-231; assay: Cytotoxicity against human MDA-MB-231 cells assessed as cell growth inhibition measured after 72 hrs by MTT assay; type: functional, cell-based; conditions: MDA-MB-231, 72 h

Row | SMILES | IC50
5 | CC(=O)O[C@H]1CC[C@]2(C)[C@H]3CC[C@]4(C)COC(=O)C[C@H]4[C@@H]3C[C@@H](OC(C)=O)[C@@]2(O)C1 | 31 µM
6 | CO[C@]12C[C@@H](O)CC[C@]1(C)[C@H]1CC[C@]3(C)COC(=O)C[C@H]3[C@@H]1C[C@H]2O | 4.4 µM
7 | CC(=O)O[C@H]1CC[C@]2(C)[C@H]3CC[C@]4(C)COC(=O)C[C@H]4[C@@H]3C[C@@H](O)[C@@]2(F)C1 | 9.1 µM

tested on: PC-3; assay: Cytotoxicity against human PC-3 cells assessed as cell growth inhibition measured after 72 hrs by MTT assay; type: functional, cell-based; conditions: PC-3, 72 h

Row | SMILES | IC50
8 | CC(=O)O[C@H]1CC[C@]2(C)[C@H]3CC[C@]4(C)COC(=O)C[C@H]4[C@@H]3C[C@@H](OC(C)=O)[C@@]2(O)C1 | 6.6 µM
9 | C[C@]12CCC(=O)C(O)=C1CC[C@@H]1[C@@H]2CC[C@]2(C)C(=O)CC[C@@H]12 [FORMESTANE] | 26.4 µM
10 | CO[C@]12C[C@@H](O)CC[C@]1(C)[C@H]1CC[C@]3(C)COC(=O)C[C@H]3[C@@H]1C[C@H]2O | 24.8 µM
11 | CC(=O)O[C@H]1CC[C@]2(C)[C@H]3CC[C@]4(C)COC(=O)C[C@H]4[C@@H]3C[C@@H](O)[C@@]2(F)C1 | > 100 µM

tested on: HeLa; assay: Cytotoxicity against human Hela cells assessed as cell growth inhibition measured after 72 hrs by MTT assay; type: functional, cell-based; conditions: not given

Row | SMILES | IC50
12 | CC(=O)O[C@H]1CC[C@]2(C)[C@H]3CC[C@]4(C)COC(=O)C[C@H]4[C@@H]3C[C@@H](OC(C)=O)[C@@]2(O)C1 | 8.66 µM
13 | C[C@]12CCC(=O)C(O)=C1CC[C@@H]1[C@@H]2CC[C@]2(C)C(=O)CC[C@@H]12 [FORMESTANE] | 3.36 µM
14 | CO[C@]12C[C@@H](O)CC[C@]1(C)[C@H]1CC[C@]3(C)COC(=O)C[C@H]3[C@@H]1C[C@H]2O | 7.06 µM
15 | CC(=O)O[C@H]1CC[C@]2(C)[C@H]3CC[C@]4(C)COC(=O)C[C@H]4[C@@H]3C[C@@H](O)[C@@]2(F)C1 | > 100 µM

tested on: HT-29; assay: Cytotoxicity against human HT-29 cells assessed as cell growth inhibition measured after 72 hrs by MTT assay; type: functional, cell-based; conditions: HT-29, 72 h

Row | SMILES | IC50
16 | CC(=O)O[C@H]1CC[C@]2(C)[C@H]3CC[C@]4(C)COC(=O)C[C@H]4[C@@H]3C[C@@H](OC(C)=O)[C@@]2(O)C1 | > 100 µM
17 | C[C@]12CCC(=O)C(O)=C1CC[C@@H]1[C@@H]2CC[C@]2(C)C(=O)CC[C@@H]12 [FORMESTANE] | > 100 µM
18 | CO[C@]12C[C@@H](O)CC[C@]1(C)[C@H]1CC[C@]3(C)COC(=O)C[C@H]3[C@@H]1C[C@H]2O | > 100 µM
19 | CC(=O)O[C@H]1CC[C@]2(C)[C@H]3CC[C@]4(C)COC(=O)C[C@H]4[C@@H]3C[C@@H](O)[C@@]2(F)C1 | 21.2 µM

tested on: A549; assay: Cytotoxicity against human A549 cells assessed as cell growth inhibition measured after 72 hrs by MTT assay; type: functional, cell-based; conditions: A549, 72 h

Row | SMILES | IC50
20 | CC(=O)O[C@H]1CC[C@]2(C)[C@H]3CC[C@]4(C)COC(=O)C[C@H]4[C@@H]3C[C@@H](OC(C)=O)[C@@]2(O)C1 | > 100 µM
21 | C[C@]12CCC(=O)C(O)=C1CC[C@@H]1[C@@H]2CC[C@]2(C)C(=O)CC[C@@H]12 [FORMESTANE] | 38.6 µM
22 | CO[C@]12C[C@@H](O)CC[C@]1(C)[C@H]1CC[C@]3(C)COC(=O)C[C@H]3[C@@H]1C[C@H]2O | > 100 µM
23 | CC(=O)O[C@H]1CC[C@]2(C)[C@H]3CC[C@]4(C)COC(=O)C[C@H]4[C@@H]3C[C@@H](O)[C@@]2(F)C1 | > 100 µM

tested on: MRC5; assay: Cytotoxicity against human MRC5 cells assessed as cell growth inhibition measured after 72 hrs by MTT assay; type: cell-based; conditions: MRC5, 72 h

Row | SMILES | IC50
24 | CC(=O)O[C@H]1CC[C@]2(C)[C@H]3CC[C@]4(C)COC(=O)C[C@H]4[C@@H]3C[C@@H](OC(C)=O)[C@@]2(O)C1 | > 100 µM
25 | C[C@]12CCC(=O)C(O)=C1CC[C@@H]1[C@@H]2CC[C@]2(C)C(=O)CC[C@@H]12 [FORMESTANE] | 0.1 µM
26 | CO[C@]12C[C@@H](O)CC[C@]1(C)[C@H]1CC[C@]3(C)COC(=O)C[C@H]3[C@@H]1C[C@H]2O | > 100 µM
27 | CC(=O)O[C@H]1CC[C@]2(C)[C@H]3CC[C@]4(C)COC(=O)C[C@H]4[C@@H]3C[C@@H](O)[C@@]2(F)C1 | > 100 µM

tested on: MDA-MB-231; assay: Induction of apoptosis in human MDA-MB-231 cells assessed as late apoptotic cells by measuring red colour signal measured after 72 hrs by fluorescent double-staining method; type: functional, cell-based; conditions: not given

Row | SMILES | Activity
28 | CC(=O)O[C@H]1CC[C@]2(C)[C@H]3CC[C@]4(C)COC(=O)C[C@H]4[C@@H]3C[C@@H](OC(C)=O)[C@@]2(O)C1 | Active
29 | CO[C@]12C[C@@H](O)CC[C@]1(C)[C@H]1CC[C@]3(C)COC(=O)C[C@H]3[C@@H]1C[C@H]2O | Active
30 | CC(=O)O[C@H]1CC[C@]2(C)[C@H]3CC[C@]4(C)COC(=O)C[C@H]4[C@@H]3C[C@@H](O)[C@@]2(F)C1 | Active

target: Estrogen receptor beta (Homo sapiens) (UniProt Q92731); assay: Binding affinity to EYFP-tagged human ERbeta-LBD expressed in Saccharomyces cerevisiae FY250 strain assessed as fluorescence intensity at 10 uM incubated for 14 to 16 hrs by fluorescence spectroscopy based fluorescence microscopy relative to control; conditions: time 14-16 hrs
Sequence (Q92731 whole entry, the tested form may be a part): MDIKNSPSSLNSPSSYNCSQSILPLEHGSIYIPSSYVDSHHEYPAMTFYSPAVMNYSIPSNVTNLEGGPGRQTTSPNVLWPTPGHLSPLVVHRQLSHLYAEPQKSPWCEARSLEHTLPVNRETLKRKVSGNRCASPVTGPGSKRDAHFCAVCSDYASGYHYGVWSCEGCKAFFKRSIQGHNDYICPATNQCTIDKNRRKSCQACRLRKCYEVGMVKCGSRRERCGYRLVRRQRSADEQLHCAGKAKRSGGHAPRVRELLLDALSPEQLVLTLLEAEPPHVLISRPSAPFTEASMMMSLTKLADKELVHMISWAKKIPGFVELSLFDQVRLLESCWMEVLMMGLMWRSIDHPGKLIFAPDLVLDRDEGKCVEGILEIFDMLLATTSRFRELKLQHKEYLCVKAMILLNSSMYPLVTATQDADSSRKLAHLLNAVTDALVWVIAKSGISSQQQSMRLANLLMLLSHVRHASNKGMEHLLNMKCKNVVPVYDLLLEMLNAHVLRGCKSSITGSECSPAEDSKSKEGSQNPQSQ

Row | SMILES | Activity
31 | CC(=O)O[C@H]1CC[C@]2(C)[C@H]3CC[C@]4(C)COC(=O)C[C@H]4[C@@H]3C[C@@H](O)[C@@]2(F)C1 | Active
